Common to all, as to format: in vivo
Conditions in all cases: 312 h, evaluated after 13 days, 100=total damage to plant, 0=no damage to plant

Assay [1] relates to Avena fatua (AVEFA). As to the kind of experiment: Test Example B, pre-emergence herbicidal test. On the procedure:
(§1) Seeds of a variety of test species were sown in standard soil in pots. After cultivation for one day (pre-emergence) or after 8 days cultivation (post-emergence) under controlled conditions in a glasshouse (at 24/16° C., day/night; 14 hours light; 65% humidity), the plants were sprayed with an aqueous spray solution derived from the formulation of the technical active ingredient in acetone/water (50:50) solution containing 0.5% Tween 20 (polyoxyethelyene sorbitan monolaurate, CAS RN 9005-64-5). The test plants were then grown in a glasshouse under controlled conditions in a glasshouse (at 24/16° C., day/night; 14 hours light; 65% humidity) and watered twice daily. After 13 days for pre and post-emergence, the test was evaluated (100=total damage to plant; 0=no damage to plant). Test Plants: Setaria faberi (SETFA), Alopecurus myosuroides (ALOMY), Echinochloa crus-galli (ECHCG), and Avena fatua (AVEFA).

Assay [2] relates to Echinochloa crus-galli (ECHCG). Kind of assay: Test Example B, pre-emergence herbicidal test. The protocol: as §1
The subject of assay [3] is Alopecurus myosuroides (ALOMY). As to the kind of experiment: Test Example B, pre-emergence herbicidal test. On the procedure: as §1
For assay [4], the system named is Avena fatua (AVEFA). Kind of assay: Test Example B, post-emergence herbicidal test. The protocol: as §1
The subject of assay [5] is Echinochloa crus-galli (ECHCG). As to the kind of experiment: Test Example B, post-emergence herbicidal test. The protocol: as §1
For assay [6], the system named is Alopecurus myosuroides (ALOMY). Kind of assay: Test Example B, post-emergence herbicidal test. On the procedure:
as §1

As to `CCc1ccc(-c2ccc(Cl)s2)cc1C1=C(O)[C@H]2[C@H]3CC[C@H](CC3)[C@H]2C1=O` [Compound T17], the pest or weed control at 250 g/ha in the assay with Avena fatua (AVEFA) [1] worked out at 90%; in assay [2], 100%; in assay [3] it was 80%; in the assay with Avena fatua (AVEFA) [4], 50%; in assay [5] it was 90%; in assay [6], 40%.

Take `CCc1ccc(-c2ccc(Cl)cc2)cc1C1=C(O)[C@H]2[C@H]3CC[C@H](C3)[C@H]2C1=O` (racemic) [Compound T1, rac-(3aR,4R,7S,7aS)-2-(4′-chloro-4-ethylbiphenyl-3-yl)hexahydro-4,7-methanoindene-1,3-dione]: the pest or weed control at 250 g/ha turned out to be 100% in the assay on Avena fatua (AVEFA) [1]; 100% in assay [2]; 70% in assay [3]; 100% with Avena fatua (AVEFA) [4]; 100% in assay [5]; 90% in assay [6].

In the case of `CCc1ccc(-c2ccc(Cl)c(F)c2F)cc1C1=C(O)[C@H]2[C@H]3CC[C@H](C3)[C@H]2C1=O` [Compound T40], the pest or weed control at 250 g/ha in the assay with Avena fatua (AVEFA) [1] was 60%; in assay [2], 100%; in assay [3] it was 50%; with Avena fatua (AVEFA) [4], 90%; in assay [5] it was 100%; in assay [6], 90%.

As for `CCc1ccc(-c2ccc(Cl)c(F)c2Cl)cc1C1=C(O)[C@H]2[C@H]3CC[C@H](CC3)[C@H]2C1=O` [Compound T43], the pest or weed control at 250 g/ha in the assay on Avena fatua (AVEFA) [1] was determined as 20%; in assay [2] it was 40%; in assay [3], 0%; with Avena fatua (AVEFA) [4], 30%; in assay [5], 100%; in assay [6], 70%.

In the case of `CCc1ccc(-c2ccc(Cl)nc2)cc1C1=C(O)[C@H]2[C@H]3CC[C@H](C3)[C@H]2C1=O` [Compound T36], the pest or weed control at 250 g/ha with Avena fatua (AVEFA) [1] worked out at 40%; in assay [2], 80%; in assay [3], 30%; in the assay on Avena fatua (AVEFA) [4], 20%; in assay [5] it was 50%; in assay [6] it was 0%.

As to `CCc1ccc(-c2ccc(Cl)cc2)cc1C1=C(O)[C@H]2[C@H]3CC[C@H](CC3)[C@H]2C1=O` (racemic) [Compound T3, rac-(3aR,7aS)-2-(4′-chloro-4-ethylbiphenyl-3-yl)hexahydro-4,7-ethanoindene-1,3-dione], the pest or weed control at 250 g/ha with Avena fatua (AVEFA) [1] is 70%; in assay [2], 100%; in assay [3], 70%; in the assay with Avena fatua (AVEFA) [4], 90%; in assay [5] it was 100%; in assay [6], 100%.

On to `CCc1ccc(-c2ccc(Cl)cc2F)cc1C1=C(O)[C@H]2[C@H]3CC[C@H](C3)[C@H]2C1=O` (racemic) [Compound T28, rac-(3aR,4R,7S,7aS)-2-(4′-chloro-4-ethyl-2′-fluorobiphenyl-3-yl)-hexahydro-4,7-methanoindene-1,3-dione], for which the pest or weed control at 250 g/ha turned out to be 90% with Avena fatua (AVEFA) [1]; 100% in assay [2]; 60% in assay [3]; 10% in the assay with Avena fatua (AVEFA) [4]; 90% in assay [5]; 30% in assay [6].

Take `CCc1ccc(-c2ccc(Cl)cc2F)cc1C1=C(O)[C@H]2[C@H]3CC[C@H](CC3)[C@H]2C1=O` (racemic) [Compound T10, rac-(3aR,7aS)-2-(4′-chloro-4-ethyl-2′-fluorobiphenyl-3-yl)hexahydro-4,7-ethanoindene-1,3-dione]: the pest or weed control at 250 g/ha with Avena fatua (AVEFA) [1] is 0%; in assay [2] it was 90%; in assay [3], 0%; with Avena fatua (AVEFA) [4] it was 0%; in assay [5], 90%; in assay [6], 0%.

Source of the values: patent publication US20120065066A1, “NOVEL HERBICIDES” (SYNGENTA CROP PROTECTION LLC, priority 2009, published 2012).
